Experimental data published in patent US10385022B2, “3-amino-pyridines as GPBAR1 agonists” (HOFFMANN-LA ROCHE INC., priority 2011, dated 2019).

target: human GPBAR1 receptor (Homo sapiens (Human), UniProt Q8TDU6); assay: functional cAMP assay in CHO-dhfr(minus) cells expressing human GPBAR1 receptors; format: cell-based; details: CHO-dhfr(minus) cells expressing human GPBAR1, 30 min at 30° C.
Protocol: The final clone was verified by DNA sequence analysis. The plasmid was transfected into CHO cells deficient in dihydrofolate reductase activity (CHO-dhfr-) using Lipofectamine plus (Invitrogen). Clones were isolated in limited dilution conditions and identified by activities in the cAMP assay using lithocholic acid as agonist.
EC50 values were determined using Activity Base analysis (ID Business Solution, Limited). […] Specificity for GPBAR1 was tested in non-transfected CHO cells in the same assay as above.

human GPBAR1 receptor, sequence (Q8TDU6 whole entry): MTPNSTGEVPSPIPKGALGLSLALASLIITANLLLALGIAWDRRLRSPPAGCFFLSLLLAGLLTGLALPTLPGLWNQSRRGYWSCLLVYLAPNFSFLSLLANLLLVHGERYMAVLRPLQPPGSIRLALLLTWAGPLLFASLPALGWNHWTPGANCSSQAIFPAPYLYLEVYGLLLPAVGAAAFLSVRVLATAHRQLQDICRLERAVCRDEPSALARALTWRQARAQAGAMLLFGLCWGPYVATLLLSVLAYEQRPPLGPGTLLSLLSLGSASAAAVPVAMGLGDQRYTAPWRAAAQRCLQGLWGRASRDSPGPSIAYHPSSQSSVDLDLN

SMILES	EC50
COC(=O)CN(C(=O)c1cc(C(F)(F)F)cc(C(F)(F)F)c1)c1cnccc1-c1cc(F)c(F)cc1OC [Example 188, {(3,5-Bis-trifluoromethyl-benzoyl)-[4-(4,5-difluoro-2-methoxy-phenyl)-pyridin-3-yl]-amino}-acetic acid methyl ester]	70 nM
COc1cc(F)ccc1-c1ccncc1N(C)C(=O)c1cc(C(F)(F)F)cc(S(=O)(=O)N2CCC2)c1 [Example 249, 3-(Azetidine-1-sulfonyl)-N-[4-(4-fluoro-2-methoxy-phenyl)-pyridin-3-yl]-N-methyl-5-trifluoromethyl-benzamide]	19 nM
CC1CCCCN1c1ccncc1N(C)C(=O)c1cc(C(F)(F)F)cc(C(F)(F)F)c1 (stereo not shown) [Example 20, N-Methyl-N-(2-methyl-3,4,5,6-tetrahydro-2H-[1,4′]bipyridinyl-3′-yl)-3,5-bis-trifluoromethyl-benzamide]	143 nM
Cc1cccc(-c2ccncc2N(C)C(=O)c2cc(C(F)(F)F)cc(C(F)(F)F)c2)c1C [Example 105, N-[4-(2,3-Dimethyl-phenyl)-pyridin-3-yl]-N-methyl-3,5-bis-trifluoromethyl-benzamide]	485 nM
CS(=O)(=O)CCN(C(=O)c1cc(C(F)(F)F)nc(C(F)(F)F)c1)c1cnccc1-c1ccccc1F [Example 159, N-[4-(2-Fluoro-phenyl)-pyridin-3-yl]-N-(2-methanesulfonyl-ethyl)-2,6-bis-trifluoromethyl-isonicotinamide]	326 nM
Cc1cc(C)cc(C(=O)N(C)c2cnccc2-c2ccccc2C)c1 [Example 96, 3,5,N-Trimethyl-N-(4-o-tolyl-pyridin-3-yl)-benzamide]	127 nM
COc1cc(-c2ccncc2N(C)C(=O)c2cc(C(F)(F)F)cc(C(F)(F)F)c2)c(OC)nn1 [Example 54, N-[4-(3,6-Dimethoxy-pyridazin-4-yl)-pyridin-3-yl]-N-methyl-3,5-bis-trifluoromethyl-benzamide]	1970 nM

Further lines, results first:

EC50	SMILES
115 nM	COc1cc(F)ccc1-c1cc(C)ncc1N(C)C(=O)c1cc(C(F)(F)F)cc(S(=O)(=O)C2COC2)c1 [Example 314, N-[4-(4-Fluoro-2-methoxy-phenyl)-6-methyl-pyridin-3-yl]-N-methyl-3-(oxctane-3-sulfonyl)-5-trifluoromethyl-benzamide]
177 nM	CCOC(=O)CCc1cc(C(=O)N(C)c2cnccc2-c2ccc(F)cc2OC)cc(C(F)(F)F)c1 [Example 266, 3-(3-{[4-(4-Fluoro-2-methoxy-phenyl)-pyridin-3-yl]-methyl-carbamoyl}-5-trifluoromethyl-phenyl)-propionic acid ethyl ester]
64 nM	CN(C(=O)c1cc(C(F)(F)F)cc(S(C)(=O)=O)c1)c1cnccc1-c1ccccc1OC1COC1 [Example 272, 3-Methanesulfonyl-N-methyl-N-{4-[2-(oxetan-3-yloxy)-phenyl]-pyridin-3-yl}-5-trifluoromethyl-benzamide]
88 nM	COc1cc(F)ccc1-c1ccncc1N(C)C(=O)c1cc(C(F)(F)F)cc(S(=O)(=O)C2CN(S(N)(=O)=O)C2)c1 [Example 292, N-[4-(4-Fluoro-2-methoxy-phenyl)-pyridin-3-yl]-N-methyl-3-(1-sulfamoyl-azetidine-3-sulfonyl)-5-trifluoromethyl-benzamide]
1880 nM	Cc1cc(-c2ccccc2OCC2COC2)c(N(C)C(=O)c2cc(C(F)(F)F)cc(S(C)(=O)=O)c2)cn1 [Example 321, 3-Methanesulfonyl-N-methyl-N-{6-methyl-4-[2-(oxetan-3-ylmethoxy)-phenyl]-pyridin-3-yl}-5-trifluoromethyl-benzamide]
2720 nM	CN(C(=O)c1cc(C(F)(F)F)cc(S(C)(=O)=O)c1)c1cnccc1-c1cccnc1OC1CN(C(=O)OC(C)(C)C)C1 [Example 320, 3-{3′-[(3-Methanesulfonyl-5-trifluoromethyl-benzoyl)-methyl-amino]-[3,4′]bipyridinyl-2-yloxy}-azetidine-1-carboxylic acid tert-butyl ester]
